Reference: US12661355B2, “Compounds and methods for inducing UCP1 expression” (The Regents of the University of California, priority 2020, dated 2026)

What was measured:
Ucp1 = experiment: Gene expression by qPCR in immortalized brown adipocytes; format: cell-based, mouse; settings: for effect of antagonist on induction of Ucp1 mRNA by Z160: 20 μM antagonist 1 h prior to and during overnight 10 μM Z160
Experimental: Primary brown adipocytes were isolated according to known methods. An established mouse brown adipocyte cell line was obtained from Dr. Bruce Spiegelman (Dana-Farber Cancer Institute, Boston, USA). To differentiate primary and immortalized brown adipocytes, cells were grown until confluency in DMEM containing 10% FBS, 25 mM glucose 1 mM pyruvate, 2 mM glutamine, 20 nM insulin, 1 nM T3, and antibiotics. Once confluent (day 0), differentiation was induced by supplementing the medium with 0.5 mM IBMX, 0.5 μM dexamethasone, and 0.125 mM indomethacin, for 2 days. Differentiation was continued in the original medium (without IBMX, dexamethasone and indomethacin) for 7-10 days.
TScreening was conducted at the UCLA Molecular Screening Shared Resource using automated instruments Immortalized brown adipocytes were differentiated in T225 flasks and plated in Matrix 384-well plates (26,000 cells per well) with white flat bottom (ThermoScientific) using trypsin and collagenase type II (Sigma C6885). The small molecule libraries screened were a BioMol library (204 compounds), an FDA-approved drug library (1120 compounds), a Microsource spectrum collection (2000 compounds), and a druggable compound set (8000 compounds). Molecules were delivered at 10 μM final concentration in DMSO. The screen was performed in duplicate on different days. After 18 h, luciferase activity was measured with Bright-Glo luciferase assay system and an LJL instrument. Data were normalized to the basal response (100% activity) in the presence of DMSO. Following the primary screen, 92 molecules were selected for validation and used to treat brown adipocyte cells plated in a 96-well plate overnight. RNA was extracted with an SV 96 Total RNA Isolation System (Promega). Compounds used for follow-up studies were identified using search tools available from Molport (molport.com), and ordered from the same company.
(§1) RNA levels were measured by qPCR according to known methods. Briefly, RNA was extracted with TRIzol (Invitrogen) and reverse transcribed with iScript (Bio-Rad). Real-time PCR analysis was performed with a CFX Connect (Bio-Rad).
Mouse RNA levels were measured by qPCR according to known methods. Data were normalized to B2m and Tbp reference genes. Human RNA was extracted using an RNA Mini Plus kit (Zymo) and gene expression determined by Taqman assay. The 1-step qPCR was run on a QuantStudio 12K Flex Real Time PCR System (ThermoFisher) using the following protocol: 50° C. for 5 minutes, 95° C. for 20 seconds, 40 cycles of 95° C. for 15 seconds and 60° C. for 60 seconds. Data were normalized to PPIA and PSMB2 reference genes. For global gene expression analysis, RNA isolated from brown adipocytes treated with compounds as indicated (four biological replicates) was hybridized to Illumina mouse Ref 8 V2.0 bead chips at the University of California, Los Angeles Neuroscience Genomics Core as previously described. Data were processed with GenomeStudio V2011.1 using the quantile normalization, background subtraction, and a present call of P<0.05.

NRVM [1] = experiment: Hypertrophic gene expression in neonatal rat ventricular myocytes; format: cell-based; settings: agonist alone, 48 h
Experimental: (§2) Rat H9c2 cells were grown in DMEM supplemented with 10% FBS, 25 mM glucose, 1 mM pyruvate, and 2 mM glutamine Neonatal rat ventricular myocytes (NRVM) were isolated and cultured as previously described. Briefly, 2-4 day old rats were sacrificed and myocytes and fibroblasts were isolated and separated using a Percoll density gradient. Following isolation, NRVMs were plated on gelatin-coated plates in DMEM containing 10% FBS, 25 mM glucose, 1 mM pyruvate, and 2 mM glutamine The next day, FBS was replaced by 1× insulin-transferrin-selenium supplement and the cells were treated with vehicle or 10 μM Z160 for 2 days, with or without 60 μM isoproterenol or 50 μM phenylephrine.
as §1

PKA = PKA activity ELISA, cell or tissue lysates treated 30 min; format: biochemical, mouse; settings: cell lysates, 500 μM H-89 10 min, then 50 μM Z160 30 min
Experimental: PKA kinase activity was measured with an ELISA that utilized a synthetic peptide as substrate for PKA and a polyclonal antibody that recognizes the phosphorylated form of the substrate (ab139435, Abcam). PKA activity was measured in lysates from cultured brown adipocytes, mouse BAT, or liver. Cells and tissues were lysed in 20 mM MOPS, 5 mM EGTA, 2 mM EDTA, and 0.1% Triton X-100 supplemented with protease and phosphatase inhibitor as described above. Protein concentration was determined by Bradford assay and 10 μg of cells, 0.25 μg of BAT extract, or 0.5 μg of liver extract were assessed for PKA activation according to the manufacturer's instruction, with minor changes. Briefly, vehicle or Z160 was incubated with brown adipocyte cells overnight or with protein lysates for 30 min, followed by one wash before the primary antibody, 60 min incubation with the primary antibody, 30 min incubation with the secondary antibody, and by 10 min washing. Absorbance was measured after the substrate was added for 20-60 min, depending the intensity of the signal.

NRVM [2] = experiment: Respirometry (reserve capacity) in neonatal rat ventricular myocytes; format: cell-based; settings: 48 h 100 μM isoproterenol followed by 24 h rest
Experimental: as §2
NRVM were seeded in a Seahorse Bioscience XF96 plate and cultured for 48 h in 10% FBS. Next, cells were treated with 100 μM ISO for 48 h, followed by 24 h of 10 μM Z160. Oxygen consumption rate (OCR) was recorded in a Seahorse Bioscience XF96 analyzer before and after the sequential injection of 0.75 μM oligomycin, 0.75 μm FCCP and 0.75 μM rotenone/myxothiazol. Reserve capacity was calculated as the difference between basal respiration and FCCP response.

AKAP1 = target: T1, AKAP1 (Mus musculus, UniProt O08715); experiment: Drug Affinity Responsive Target Stability (DARTS) in BAT or brown adipocyte extracts, AKAP1; format: binding; settings: mouse brown adipocyte extracts, 1 h, 20 μM (CL316,243 20 nM)
T1 construct: from tissue; host or cells: mouse brown adipose tissue (BAT) lysate; also mouse brown adipocyte extracts
T1 sequence (O08715 30-857): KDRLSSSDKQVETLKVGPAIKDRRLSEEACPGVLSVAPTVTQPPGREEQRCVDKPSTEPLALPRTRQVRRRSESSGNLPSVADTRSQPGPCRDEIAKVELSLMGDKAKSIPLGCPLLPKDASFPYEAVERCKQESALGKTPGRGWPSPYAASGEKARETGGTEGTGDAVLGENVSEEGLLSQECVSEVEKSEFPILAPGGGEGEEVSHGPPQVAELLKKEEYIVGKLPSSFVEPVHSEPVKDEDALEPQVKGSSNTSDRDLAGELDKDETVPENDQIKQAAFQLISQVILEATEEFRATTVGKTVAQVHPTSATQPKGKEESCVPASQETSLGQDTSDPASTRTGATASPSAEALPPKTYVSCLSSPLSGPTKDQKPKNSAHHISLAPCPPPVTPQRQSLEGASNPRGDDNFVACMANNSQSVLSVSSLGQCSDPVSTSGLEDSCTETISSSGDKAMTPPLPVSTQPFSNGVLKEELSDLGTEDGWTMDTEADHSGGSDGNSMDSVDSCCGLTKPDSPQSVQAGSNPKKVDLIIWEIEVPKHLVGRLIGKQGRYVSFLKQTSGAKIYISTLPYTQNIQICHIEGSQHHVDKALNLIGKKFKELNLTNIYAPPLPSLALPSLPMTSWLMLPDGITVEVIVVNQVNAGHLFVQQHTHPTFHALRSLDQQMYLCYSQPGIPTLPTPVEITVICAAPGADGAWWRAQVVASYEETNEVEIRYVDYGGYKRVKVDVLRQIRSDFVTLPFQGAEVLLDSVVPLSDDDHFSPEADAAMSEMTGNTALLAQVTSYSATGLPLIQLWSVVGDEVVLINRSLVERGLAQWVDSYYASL
Experimental: […] assays were performed according to known methods. Briefly, BAT or cells within a 10 cm dish were lysed with 600 μl M-PER buffer containing protease and phosphatase inhibitors. Debris was pelleted by centrifugation at 18,000 g for 10 min at 4° C., and the lysates were harvested and supplemented with TNC buffer (50 mM Tris-HCl, 50 mM NaCl, 10 mM CaCl2). The lysates were split into two tubes and treated with either vehicle or 20 μM Z160 for 1 h at room temperature. For experiment with BAT, 100 μg of lysate was incubated with different Z160 concentrations. Different concentrations of pronase (from 1:100 to 1:10,000 dilution from a 1.25 mg/ml pronase stock) were incubated with the samples for 30 min at room temperature and the reaction was stopped with SDS loading buffer followed immediately by heating at 70° C. for 10 min. Protein lysates were separated by SDS-PAGE and transferred to a nitrocellulose membrane. After blocking in 5% milk, 0.1% Tween-20 in Tris-buffered saline (TBS), primary antibody was incubated overnight at 4° C. in 5% bovine serum albumin and 0.1% Tween-20 in TBS. Primary antibodies against AKAP1 (5203, Cell Signaling), AKAP13 (39715, One World Lab), GAPDH (GTX100118, Genetex), OPA1 (39557, One World Lab), PKA C-α (4782, Cell Signaling), PKA RII-β (ab75993, Abcam), were used at 1:2000. A goat anti-rabbit secondary antibody (sc-2030, Santa Cruz Biotechnology, Inc) was used at a 1:10,000 dilution for 1 h at room temperature in 5% milk and 0.1% Tween-20 in TBS.
The PKA tetramer consists of two catalytic and two regulatory subunits. In the mouse, these are catalytic subunits C-α and C-β, and regulatory subunits RI and RII, each with α and β isoforms (RI-α, RI-β, RII-α, RII-β). PKA is also bound to a family of anchoring proteins, A-kinase anchoring proteins (AKAPs), which allow the compartmentalization of cAMP signaling. To investigate whether Z160 binds PKA complex proteins, two techniques were applied both of which rely on ligand-induced alterations in protein stability: Cellular Thermal Shift Assay (CETSA) and Drug Affinity Responsive Target Stability (DARTS). CETSA is based on the principle that ligand binding will change the temperature at which a protein starts to unfold and aggregate, while DARTS relies on the protection of a protein from proteolysis upon specific binding to a small molecule.
To provide further evidence for an interaction between Z160 and AKAP1, DARTS assays were employed. Lysates from brown fat were treated with different Z160 concentrations for 1 h followed by pronase digestion and immunoblotting. […] The effect of Z160 on AKAP1 was confirmed using mouse brown adipocyte extracts (FIG. 15A).

c1ccc(CC2=NCCN2)cc1 [tolazoline, reference compound]
effect of antagonist on induction of Ucp1 mRNA by Z160 (Ucp1): did not prevent

CNC[C@H](O)c1cccc(O)c1 [phenylephrine]
expression of Nppa and Nppb (NRVM [1]): induced the expression | expression of Pln (NRVM [1]): reduced expression | expression of Nppa and Nppb (NRVM [1]; listed as PE): increase | expression of Pln (NRVM [1]; listed as PE): decreasing

O=S(=O)(NCCNC/C=C/c1ccc(Br)cc1)c1cccc2cnccc12 [H-89, reference compound]
effect of antagonist on Z160 enhancement of Cidea and Elovl3 expression (Ucp1; 20 μM H-89 1 h prior to and during overnight 10 μM Z160): blunted | effect of antagonist on induction of Ucp1 mRNA by Z160 (Ucp1): blocked the effect of Z160 | PKA activity and Z160 response after pre-incubation with PKA antagonist (PKA): reduced the PKA activity and negated the Z160 response

CC(C)NCC(O)c1ccc(O)c(O)c1 (stereo not drawn) [isoproterenol]
reserve capacity of mitochondrial respiration (NRVM [2]): decreased the reserve capacity | expression of Nppa and Nppb (NRVM [1]): induced the expression | expression of Pln (NRVM [1]): reduced expression | expression of Nppa and Nppb (NRVM [1]; listed as ISO): increase | expression of Pln (NRVM [1]; listed as ISO): decreasing

Oc1ccc(-c2nc(-c3ccncc3)c(-c3ccc(F)cc3)[nH]2)cc1 [SB202190, reference compound]
effect of antagonist on induction of Ucp1 mRNA by Z160 (Ucp1): blocked the effect of Z160

C[C@H](Cc1ccc2c(c1)OC(C(=O)[O-])(C(=O)[O-])O2)NC[C@H](O)c1cccc(Cl)c1.[Na+].[Na+] [CL316,243, reference compound]
effect on AKAP1 (pronase susceptibility) (AKAP1): not observed
